For series [1], the system named is KB cells. The series can be described thus: In Vitro KB Cell Cytotoxicity Assay (crystal violet). It counts as cell-based. The conditions noted are these: Homo sapiens, 72 h, read-out: Cytotoxicity TD50 KB. The procedure:
KB cells were cultivated in Eagles minimum essential medium supplemented with 10% calf serum and incubated at 37° C. in a humidified 5% CO2 atmosphere to prepare a cell stock. Cells were counted using a neubauer hemocytometer and seeded in 96 well plates at 100 μl of 3×10^4 cells/ml and cultured for one day. […] Control wells were identical except that test compound was absent. These were cultured for three days. […] Then stained with 100 μl of 0.05% crystal violet for 15 minutes, washed with water and dried. The wells were eluted with 100 μl of 0.05M NaH2 PO4 /ethanol (1:1 v/v) and read at OD540 on a multiscan spectrophotometer. TD50 values were calculated using the following formula.

The subject of series [2] is L1210 cells. Nature of the series: cells. It counts as cell-based. The conditions noted are these: Mus musculus, L1210, 72 h, read-out: Cytotoxicity TD50 L1210. As to the method: In vitro L1210 cell cytotoxicity assay was done by the method of microculture tetrazolium assay (Alley et al., Cancer Research, 48, 589-601 (1988)). L1210 cells were cultivated in RPMI 1640 medium supplemented with 10% fetal calf serum and […] of 2-mercaptoethanol at 37° C. in humidified 5% CO2 atmosphere to prepare a cell stock. Cells were counted using neubauer hemocytometer and seed in 96 well plates at 100 μl of 0.5×10^4 cells per ml. The test compounds were diluted and 100 μl of the solution was added in triplicate wells to give the final concentration of 10, 5, 1, 0.5 and 0.1 μg/ml. Control wells were identical except that the test compound was absent. These were cultured for three days. Results were assayed using the microculture tetrazolium assay briefly. 50 μl of MTT formazoan working solution (1:5 v/v in culture medium) was added to each well and cultures were incubated at 37° C. for 4 hrs. Culture plates were centrifuged at low speed for 5 minutes. All but 10-20 μl of culture medium supernatant was removed by slow aspiration and replaced by 50 μl of DMSO. The formazoan was dissolved by shaking on a mechanical shaker and read at OD540 on a multiscan spectrophotometer. TD50 values were calculated using the formula: [formula] to give interpolative values between two dilutions.

Series [3] relates to Sarcoma 180. The series can be described thus: In Vivo Antitumor Activity Against Sarcoma 180. The conditions noted are these: for Mortality in 12 days: i.p., days 1, 5 and 9.
Procedure: Sarcoma 180, 5×10^6 cells were inoculated by S.C. to male ICR mice (6 weeks old) on day 0. Drugs were administered on days 1, 5 and 9. Mice were killed and tumor weight was measured on day 12 after transplantation. The percentage inhibition of tumor growth was calculated from the mean tumor weight of the treated group compared with that of the control group. Number of mice used in each group was between 6 to 10.
[4] abbreviates: Mus musculus, Sarcoma-180, ip, 288 h, read-out: % Inhibition of tumor growth.

In brackets after ≈: the same amount, converted by molar mass.

For `O=COC[C@H]1CN2C(=O)C[C@@H]2O1` (racemic) [compound 3, (3RS, 5SR)-3-Formyloxymethyl-4-oxa-1-azabicyclo[3,2,0]heptan-7-one], the CC50 came out at 0.04 µg/mL (≈ 0.234 µM) in series [1] and 0.22 µg/mL (≈ 1.29 µM) in series [2]. Further, the “Mortality in 12 days” value in series [3] (3.13 mg/kg/day) and in series [3] (6.25 mg/kg/day) was 0/7 in each case. Further, in series [3] (setting [4]), the inhibition in vivo at 3.13 mg/kg came out at 27.6%. Further, in series [3] (setting [4]), the inhibition in vivo at 6.25 mg/kg is 55.3%.
As to `CC(=O)OC[C@H]1CN2C(=O)C[C@@H]2O1` (racemic) [compound 4, (3RS, 5SR)-3-Acetoxymethyl-4-oxa-1-azabicyclo[3,2,0]heptan-7-one], the CC50 in series [1] and in series [2] was 0.4 µg/mL (≈ 2.16 µM) throughout. Also, the “Mortality in 12 days” value in series [3] (6.25 mg/kg/day) and in series [3] (12.5 mg/kg/day) was 0/7 throughout. Besides, in series [3] (setting [4]), the inhibition in vivo at 6.25 mg/kg stood at 64%. The inhibition in vivo at 12.5 mg/kg in series [3] (setting [4]) is 70.7%.
With `CCCC(=O)OC[C@H]1CN2C(=O)C[C@@H]2O1` (racemic) [compound 5, (3RS, 5SR)-3-Butyryloxymethyl-4-oxa-1-azabicyclo [3,2,0]heptan-7-one], the CC50 amounted to 0.3 µg/mL (≈ 1.41 µM) in series [1] and 0.45 µg/mL (≈ 2.11 µM) in series [2].
For the molecule `CCCCCC(=O)OC[C@H]1CN2C(=O)C[C@@H]2O1` (racemic) [compound 6, (3RS, 5SR)-3-Hexanoyloxymethyl-4-oxa-1-azabicyclo[3,2,0]heptan-7-one], the CC50 is 0.3 µg/mL (≈ 1.24 µM) in series [1] and 0.7 µg/mL (≈ 2.9 µM) in series [2]. Besides, the “Mortality in 12 days” value in series [3] (13 mg/kg/day), in series [3] (25 mg/kg/day) and in series [3] (50 mg/kg/day) was 0/6 in each case. Besides, in series [3] (setting [4]), the inhibition in vivo at 13 mg/kg was determined as 36.4%. Also, the inhibition in vivo at 25 mg/kg in series [3] (setting [4]) turned out to be 61.4%. In addition, in series [3] (setting [4]), the inhibition in vivo at 50 mg/kg came to 78%.
`CCCCCCCC(=O)OC[C@H]1CN2C(=O)C[C@@H]2O1` (racemic) [compound 7, (3RS, 5SR)-3-(n-Octanoyloxymethyl)-4-oxa-1-azabicyclo[3,2,0] heptan-7-one]: the CC50 amounted to 0.1 µg/mL (≈ 0.371 µM) in series [1] and 0.34 µg/mL (≈ 1.26 µM) in series [2].
On to `CCCCCCCCCC(=O)OC[C@H]1CN2C(=O)C[C@@H]2O1` (racemic) [compound 8, (3RS, 5SR)-3-Decanoyloxymethyl-4-oxa-1-azabicyclo[3,2,0]heptan-7-one], for which the CC50 in series [1] came to 0.3 µg/mL (≈ 1.01 µM); in series [2], 0.37 µg/mL (≈ 1.24 µM).
In the same order, the values of `O=C(CCl)OC[C@H]1CN2C(=O)C[C@@H]2O1` (racemic) [compound 13, (3RS, 5SR)-3-Chloroacetoxymethyl-4-oxa-1-azabicyclo[3,2,0]heptan-7-one] are 0.5 µg/mL (≈ 2.28 µM) and 0.28 µg/mL (≈ 1.27 µM).
`C#CC(=O)OC[C@H]1CN2C(=O)C[C@@H]2O1` (racemic) [compound 16, (3RS, 5SR)-3-Propynoyloxymethyl-4-oxa-1-azabicyclo[3,2,0]heptan-7-one]: the CC50 in series [1] amounted to 0.07 µg/mL (≈ 0.359 µM); in series [2], 0.04 µg/mL (≈ 0.205 µM). The “Mortality in 12 days” value in series [3] (1.56 mg/kg/day) and in series [3] (3.13 mg/kg/day) was 0/7 each time. Moreover, the inhibition in vivo at 1.56 mg/kg in series [3] (setting [4]) amounted to 45.9%. Also, the inhibition in vivo at 3.13 mg/kg in series [3] (setting [4]) is 53%.
Turning to `O=C1C[C@@H]2O[C@@H](C[S+]([O-])Cc3ccccc3)CN12` (mixture of isomers) [compound 42, (3RS,5SR)-3-Benzylsulfinylmethyl-4-oxa-1-azabicyclo[3,2,0]heptan-7-one], the CC50 in series [1] was found to be 0.1 µg/mL (≈ 0.377 µM); in series [2], 0.3 µg/mL (≈ 1.13 µM). The “Mortality in 12 days” value in series [3] (50 mg/kg/day) is reported as 0/7. Further, in series [3] (setting [4]), the inhibition in vivo at 50 mg/kg was determined as 64%.
`O=C1C[C@@H]2O[C@@H](C[S+]([O-])c3ccccc3)CN12` (mixture of isomers) [compound 45, (3RS, 5SR)-3-Phenylsulfinylmethyl-4-oxa-1-azabicyclo [3,2,0]heptan-7-one]: the figures for the CC50 in series [1] and in series [2] were 0.3 µg/mL (≈ 1.19 µM) and 0.26 µg/mL (≈ 1.03 µM), respectively.
Take `CC=CC=CC(=O)OC[C@H]1CN2C(=O)C[C@@H]2O1` (relative stereo) [compound 14, (3RS, 5SR)-3-(2,4-Hexadienoyloxyymethyl)-4-oxa-1-azabicyclo [3,2,0]heptan-7-one]: the CC50 in series [1] worked out at 0.3 µg/mL (≈ 1.26 µM); in series [2] it was 0.65 µg/mL (≈ 2.74 µM).
The matching figures for `CCC=CCC=CCC=CCCCCCCCC(=O)OC[C@H]1CN2C(=O)C[C@@H]2O1` (relative stereo) [compound 15]: 0.41 µg/mL (≈ 1.02 µM) and 0.5 µg/mL (≈ 1.24 µM).
Regarding `COc1ccc(C(=O)OC[C@H]2CN3C(=O)C[C@@H]3O2)cc1` (relative stereo) [compound 20], the CC50 in series [1] amounted to 0.6 µg/mL (≈ 2.16 µM). In series [3] (3.13 mg/kg/day), the “Mortality in 12 days” value is given as 0/7. Moreover, the “Mortality in 12 days” value in series [3] (6.25 mg/kg/day) was 0/7. In addition, the “Mortality in 12 days” value in series [3] (12.5 mg/kg/day) was 0/7. Besides, the “Mortality in 12 days” value in series [3] (25 mg/kg/day) is reported as 0/7. In addition, in series [3] (setting [4]), the inhibition in vivo at 3.13 mg/kg came out at 60%, the inhibition in vivo at 6.25 mg/kg was 68.6%, the inhibition in vivo at 12.5 mg/kg came to 59.1% and the inhibition in vivo at 25 mg/kg was found to be 74.1%.
Turning to `O=C(OC[C@H]1CN2C(=O)C[C@@H]2O1)c1ccc(O)cc1` (relative stereo) [compound 21], in series [1], the CC50 came to 2.2 µg/mL (≈ 8.36 µM). Also, the “Mortality in 12 days” value in series [3] (50 mg/kg/day) is on record as 0/6. Moreover, the inhibition in vivo at 50 mg/kg in series [3] (setting [4]) is 48.3%.
With `O=C(O)COc1ccc(C(=O)OC[C@H]2CN3C(=O)C[C@@H]3O2)cc1` (relative stereo) [compound 23, Sodium (3RS, 5SR)-4-(4-oxa-1-azabicyclo [3,2,0]heptan-7-one-3-methyloxycarbonyl)phenoxyacetate], in series [1], the CC50 is 8.7 µg/mL. Also, the “Mortality in 12 days” value in series [3] (50 mg/kg/day) is 0/6. Besides, the inhibition in vivo at 50 mg/kg in series [3] (setting [4]) was 23.7%.
Regarding `O=C(/C=C\C(=O)OC[C@H]1CN2C(=O)C[C@@H]2O1)OC[C@H]1CN2C(=O)C[C@@H]2O1` (relative stereo) [compound 30, Bis [(3RS, 5SR)-(4-oxa-1-azabicyclo[3,2,0]heptan-7-one-3-yl)-methyl]maleate], the CC50 in series [1] was 0.05 µg/mL (≈ 0.136 µM). The “Mortality in 12 days” value in series [3] (12.5 mg/kg/day) and in series [3] (25 mg/kg/day) was 0/6 each time. Further, the inhibition in vivo at 12.5 mg/kg in series [3] (setting [4]) stood at 34%. In series [3] (setting [4]), the inhibition in vivo at 25 mg/kg was 76.9%.
Take `O=C1C[C@@H]2O[C@@H](CO)CN12` [compound 40, (3R,5S)-3-Hydroxymethyl-4-oxa-1-azabicyclo[3,2,0]heptan-7-one]: the results for the CC50 in series [1] and in series [2] were 0.03 µg/mL (≈ 0.21 µM) and 0.027 µg/mL (≈ 0.189 µM), respectively. Also, the “Mortality in 12 days” value in series [3] (0.94 mg/kg/day), in series [3] (1.88 mg/kg/day), in series [3] (3.75 mg/kg/day) and in series [3] (7.5 mg/kg/day) was 0/7 each time. The inhibition in vivo at 0.94 mg/kg in series [3] (setting [4]) was 56.1%. Further, the inhibition in vivo at 1.88 mg/kg in series [3] (setting [4]) is 63.7%. Besides, the inhibition in vivo at 3.75 mg/kg in series [3] (setting [4]) stood at 69.1%. Further, the inhibition in vivo at 7.5 mg/kg in series [3] (setting [4]) was 77.4%.
